# Data from the supplement of paper PMC10307832.
# Assays:
# Test in all cases: relative viability (nuclei count vs DMSO), 5 days (fraction); higher = more cells survive
# VX-11e = compound: CC1=CN=C(N=C1C2=CNC(=C2)C(=O)N[C@H](CO)C3=CC(=CC=C3)Cl)NC4=C(C=C(C=C4)F)Cl [VX-11e]
# Outline: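 Viability was defined as treated-well nuclei divided by vehicle-well nuclei, with the median taken over replicate plates. Cells from lung cancer lines sat overnight at 37 °C in 1536-well plates, received five √10-spaced library-drug doses by pinning on vehicle-anchored plates, and grew 5 days without medium change before one-step fixation, permeabilisation and Hoechst staining, 4× imaging and MetaXpress nuclear counts. Only plates with control CV under 25% and at least one doubling were kept.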
# VX-11e + Phenformin = compound: CC1=CN=C(N=C1C2=CNC(=C2)C(=O)N[C@H](CO)C3=CC(=CC=C3)Cl)NC4=C(C=C(C=C4)F)Cl [VX-11e] + N=C(N)NC(=N)NCCc1ccccc1 [Phenformin] (partner 250 µM)
# Outline: (§1)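 Lung cancer cell lines in 1536-well plates got either a single drug or a fixed anchor-drug dose together with five library-drug doses (not always all listed) in √10 steps, by pin tool, on the day after seeding. Nuclei were counted after 5 days, and relative viability is the treated-to-vehicle ratio of nuclei counts. Values are medians of duplicate plates.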
# VX-11e + Trametinib = compound: CC1=CN=C(N=C1C2=CNC(=C2)C(=O)N[C@H](CO)C3=CC(=CC=C3)Cl)NC4=C(C=C(C=C4)F)Cl [VX-11e] + CC(=O)Nc1cccc(-n2c(=O)n(C3CC3)c(=O)c3c(Nc4ccc(I)cc4F)n(C)c(=O)c(C)c32)c1 [Trametinib] (partner 0.02 µM)
# Outline: as §1
# VX-11e + OSI-027 = compound: CC1=CN=C(N=C1C2=CNC(=C2)C(=O)N[C@H](CO)C3=CC(=CC=C3)Cl)NC4=C(C=C(C=C4)F)Cl [VX-11e] + COc1cccc2cc(-c3nc([C@H]4CC[C@H](C(=O)O)CC4)n4ncnc(N)c34)[nH]c12 [OSI-027] (partner 0.5 µM)
# Outline: as §1
Cell Line,relative viability (VX-11e; 0.04 µM),relative viability (VX-11e; 0.1265 µM),relative viability (VX-11e; 0.4 µM),relative viability (VX-11e; 1.265 µM),relative viability (VX-11e; 4 µM),relative viability (VX-11e + Phenformin; first compound 0.04 µM),relative viability (VX-11e + Phenformin; first compound 0.1265 µM),relative viability (VX-11e + Phenformin; first compound 0.4 µM),relative viability (VX-11e + Phenformin; first compound 1.265 µM),relative viability (VX-11e + Phenformin; first compound 4 µM),relative viability (VX-11e + Trametinib; first compound 0.04 µM),relative viability (VX-11e + Trametinib; first compound 0.1265 µM),relative viability (VX-11e + Trametinib; first compound 0.4 µM),relative viability (VX-11e + Trametinib; first compound 1.265 µM),relative viability (VX-11e + Trametinib; first compound 4 µM),relative viability (VX-11e + OSI-027; first compound 0.04 µM),relative viability (VX-11e + OSI-027; first compound 0.1265 µM),relative viability (VX-11e + OSI-027; first compound 0.4 µM),relative viability (VX-11e + OSI-027; first compound 1.265 µM),relative viability (VX-11e + OSI-027; first compound 4 µM)
NCI-H1437,0.98,0.906,0.924,0.746,0.621,0.334,0.257,0.226,0.297,0.225,0.539,0.472,0.574,0.358,0.305,0.795,0.725,0.878,0.444,0.373
NCI-H1650,0.866,0.886,0.521,0.668,0.652,0.478,0.343,–,0.315,0.295,0.76,0.589,0.562,0.553,0.397,0.592,0.534,–,0.402,0.307
NCI-H1651,0.934,0.921,0.959,0.861,0.939,0.347,0.301,0.23,0.314,0.305,0.881,0.808,0.78,0.691,0.781,0.56,0.62,0.523,0.548,0.591
NCI-H1666,1.02,0.978,0.764,0.805,0.679,0.556,0.554,0.478,0.569,0.503,0.866,0.77,–,0.848,0.726,0.932,0.777,0.75,0.611,0.524
NCI-H1734,0.835,0.858,0.635,0.632,0.411,0.369,0.391,0.323,0.231,0.209,0.619,0.675,0.536,0.557,0.375,0.566,0.459,0.472,0.348,0.227
NCI-H1755,1.03,0.978,0.978,0.992,0.817,0.694,0.542,0.248,0.594,0.51,0.751,0.755,0.78,0.778,0.612,0.665,0.527,0.4,0.756,0.468
NCI-H1792,0.604,0.852,0.236,0.534,0.174,0.151,0.386,0.137,0.0901,0.038,–,0.392,–,0.322,0.102,0.733,0.581,0.524,0.634,0.208
NCI-H1793,–,0.8,–,0.752,0.301,0.372,0.314,–,0.34,0.245,–,0.316,–,0.344,0.27,0.247,0.194,–,0.251,0.134
NCI-H1915,0.992,0.784,0.784,0.734,0.489,0.401,0.343,0.291,0.298,0.235,0.305,0.284,0.233,0.204,0.114,0.573,0.439,0.254,0.338,0.213
NCI-H1944,0.874,0.869,0.525,0.78,0.558,0.194,0.193,–,0.218,0.168,0.468,0.441,0.343,0.347,0.282,0.342,0.343,–,0.309,0.259
NCI-H1975,0.95,0.885,0.774,0.816,0.598,0.443,0.362,0.261,0.393,0.199,0.341,0.295,0.171,0.255,0.21,0.695,0.499,0.291,0.415,0.162
NCI-H1993,–,0.968,0.673,0.809,0.662,0.547,0.49,0.484,0.517,0.518,–,0.493,0.576,0.506,0.451,0.556,0.538,0.557,0.605,0.677
NCI-H2009,1.12,0.962,0.932,0.481,0.269,0.575,0.535,0.481,0.251,0.178,0.22,0.209,0.247,0.162,0.169,0.637,0.665,0.559,0.226,0.168
NCI-H2023,0.941,0.957,0.557,0.569,0.445,0.393,0.404,0.291,0.322,0.191,0.601,0.495,0.391,0.292,0.171,0.332,0.349,0.139,0.183,0.114
NCI-H2085,1.04,0.949,0.923,0.84,0.696,0.6,0.707,0.641,0.449,0.425,0.495,0.516,0.524,0.482,0.497,0.625,0.695,0.517,0.322,0.251
NCI-H2087,1.05,0.989,–,0.566,0.293,0.459,0.462,–,0.393,0.181,0.255,0.182,–,0.181,0.182,0.357,0.448,–,0.319,0.145
